Measurements from patent US20090042814A1, “Treatment and Diagnosis of Obligate Intracellular Pathogens” (priority 2005, published 2009).

What was measured:
Chlamydia pneumoniae = assay: Antibiotic susceptibility test in HL cells (MIC, no inclusions detected); type: cell-based; details: 72 h
Description: (§1) For Chlamydia trachomatis isolation McCoy cells were used and for Chlamydia pneumoniae—HL cells.
(§2) Cells of each cell line were seeded into 24-well cell culture plates (approximately 2×10^5 cells per well) with cover-slips and incubated at 37° C. for 24 h to achieve monolayer confluence.
(§3) 1 ml of serum was centrifuged at 14,000×g for 1 h at 4° C. to sediment bacterial cells. Supernatant was discarded and pellet was suspended in 0.5 ml of GM (growth medium: RPMI, 5% [vol/vol] fetal calf serum, 2.0 mM L-glutamine, 8.8% [vol/vol] glucose, 4.0 μg of gentamicin per ml and 5.0 of amfotherycin B/ml). The cell monolayers were inoculated with the suspensions and centrifuged at 2,500×g for an hour at 20 °C. The infected cells were incubated for 2 h at 37° C.; after that, the medium was removed and replaced by GM with cycloheximide (1.0 μg/ml). The cells were incubated at 37° C. in 4% CO2 for 72 h.
(§4) The cells on the cover-slips were fixed with acetone and stained with a fluorescein isothiocyanate (FITC)-labeled Chlamydia genus-specific (anti-LPS) and Chlamydia trachomatis-specific (anti-MOMP) antibodies. Chlamydia inclusions were detected by fluorescent microscopy.
(§5) McCoy and HL cells were seeded and inoculated with serum samples as described above but after centrifugation at 2,500×g for an hour and incubation for 2 h at 37° C. the infected cells were overlaid with the growth medium containing serial twofold dilutions of the antibiotic (Azithromycin, Pliva) at concentration range from 0.05 to 0.8 μg/ml and incubated at 37° C. in 4% CO2 for 72 h. Chlamydia trachomatis L-2 and Chlamydia pneumoniae Kajaani 6 strains were used as reference strains. The MIC was defined as the lowest concentration at which no inclusions were detected.

Chlamydia trachomatis = assay: Antibiotic susceptibility test in McCoy cells (MIC, no inclusions detected); type: cell-based; details: 72 h
Description: as §1, §2, §3, §4, §5

Compound: CC[C@H]1OC(=O)[C@H](C)[C@@H](O[C@H]2C[C@@](C)(OC)[C@@H](O)[C@H](C)O2)[C@H](C)[C@@H](O[C@@H]2O[C@H](C)C[C@H](N(C)C)[C@H]2O)[C@](C)(O)C[C@@H](C)CN(C)[C@H](C)[C@@H](O)[C@]1(C)O [Azithromycin]
- Range of anti-microbial concentration (Chlamydia pneumoniae; Chlamydia pneumoniae isolated from serum of Patient C): >0.4 µg/mL
- Range of anti-microbial concentration (Chlamydia pneumoniae; Chlamydia pneumoniae isolated from serum of Patient D): >0.4 µg/mL
- Range of anti-microbial concentration (Chlamydia pneumoniae; Chlamydia pneumoniae reference strain Kajaani 6): >0.05 µg/mL
- Range of anti-microbial concentration (Chlamydia trachomatis; Chlamydia trachomatis isolated from serum of Patient A): >0.4 µg/mL
- Range of anti-microbial concentration (Chlamydia trachomatis; Chlamydia trachomatis isolated from serum of Patient B): >0.4 µg/mL
- Range of anti-microbial concentration (Chlamydia trachomatis; Chlamydia trachomatis reference strain L-2, tested range 0.05 to 0.8 μg/ml): >0.1 µg/mL
